ChEMBL document CHEMBL3885861, “Open TG-GATES”

Species on record: Rattus norvegicus
Assay: Open TG-GATES - Regimen: Daily Repeat
Type: toxicity, organism-based, Sprague-Dawley
Design: regimen Daily Repeat, gender Male, age 6 weeks
Conditions: in vivo, po, route gavage; for APTT / Bas / Eos / Fbg / Hb / Ht / Lym / MCH / MCHC / MCV / Mono / Neu / PT / Plat / RBC / Ret / WBC: tissue Blood; for KIDNEY_L / KIDNEY_R / KIDNEY_TOTAL: tissue Kidney; for LIVER: tissue Liver; for ALP / ALT / AST / BUN / CRE / Ca / DBIL / GLC / IP / K / LDH / Na / PL / RALB / TBIL / TC / TP / gamma-GTP / TG: tissue Plasma
[1] = 50 mg/kg, 72 h, dose level Middle, time 3 day
[2] = 50 mg/kg, […], dose level Middle, time 7 day
[3] = 50 mg/kg, […], dose level Middle, time 14 day
[4] = 50 mg/kg, […], dose level Middle, time 28 day
[5] = 150 mg/kg, 72 h, dose level High, time 3 day
[6] = 150 mg/kg, […], dose level High, time 7 day
[7] = 150 mg/kg, […], dose level High, time 14 day
[8] = 150 mg/kg, […], dose level High, time 28 day

Oc1ncnc2[nH]ncc12 [ALLOPURINOL]
APTT [1]: 16.2 s
Bas [1]: 0%
Eos [1]: 1.4%
Fbg [1]: 261.6 mg/dL
Hb [1]: 13.5 g/dL
Ht [1]: 40%
Lym [1]: 75%
MCH [1]: 21.9 pg
MCHC [1]: 33.7%
MCV [1]: 64.9 fL
Mono [1]: 9.2%
Neu [1]: 14.4%
PT [1]: 12.3 s
Plat [1]: 108.7 x10_4/uL
RBC [1]: 618 x10_4/ul
Ret [1]: 6.3%
WBC [1]: 139.1 x10_2/uL
KIDNEY_L [1]: 1.2 g
KIDNEY_R [1]: 1.2 g
KIDNEY_TOTAL [1]: 2.3 g
LIVER [1]: 11.5 g
ALP [1]: 918 IU/L
ALT [1]: 33.8 IU/L
AST [1]: 65.8 IU/L
BUN [1]: 20.6 mg/dL
CRE [1]: 0.5 mg/dL
Ca [1]: 11.1 mg/dL
DBIL [1]: 0.004 mg/dL
GLC [1]: 194.4 mg/dL
IP [1]: 7 mg/dL
K [1]: 4.7 meq/L
LDH [1]: 111.4 IU/L
Na [1]: 138.2 meq/L
PL [1]: 150 mg/dL
RALB [1]: 3.9 g/dL
TBIL [1]: 0.3 mg/dL
TC [1]: 79.4 mg/dL
TP [1]: 6.1 g/dL
gamma-GTP [1]: 2 IU/L
TERMINAL_BW [2]: 270.7 g
TERMINAL_BW [3]: 308.6 g
TERMINAL_BW [4]: 380.1 g
APTT [2]: 16.4 s
Bas [2]: 0%
Eos [2]: 0.4%
Fbg [2]: 246 mg/dL
Hb [2]: 14.2 g/dL
Ht [2]: 42.3%
Lym [2]: 86.4%
MCH [2]: 21.4 pg
MCHC [2]: 33.6%
MCV [2]: 63.9 fL
Mono [2]: 3.8%
Neu [2]: 9.4%
PT [2]: 11.8 s
Plat [2]: 120 x10_4/uL
RBC [2]: 661.2 x10_4/ul
Ret [2]: 5.3%
WBC [2]: 129.4 x10_2/uL
APTT [3]: 16.5 s
Bas [3]: 0%
Eos [3]: 0.6%
Fbg [3]: 232.2 mg/dL
Hb [3]: 14.9 g/dL
Ht [3]: 44.6%
Lym [3]: 84%
MCH [3]: 20.8 pg
MCHC [3]: 33.4%
MCV [3]: 62.2 fL
Mono [3]: 3.6%
Neu [3]: 12.2%
PT [3]: 11.9 s
Plat [3]: 111.6 x10_4/uL
RBC [3]: 716 x10_4/ul
Ret [3]: 4.2%
WBC [3]: 114 x10_2/uL
APTT [4]: 16.8 s
Bas [4]: 0%
Eos [4]: 1%
Fbg [4]: 225.6 mg/dL
Hb [4]: 15.2 g/dL
Ht [4]: 45%
Lym [4]: 78.8%
MCH [4]: 19.8 pg
MCHC [4]: 33.8%
MCV [4]: 58.5 fL
Mono [4]: 4.8%
Neu [4]: 15.6%
PT [4]: 12.1 s
Plat [4]: 101.2 x10_4/uL
RBC [4]: 770.4 x10_4/ul
Ret [4]: 2.9%
WBC [4]: 128.2 x10_2/uL
KIDNEY_L [2]: 1.2 g
KIDNEY_R [2]: 1.2 g
KIDNEY_TOTAL [2]: 2.4 g
KIDNEY_L [3]: 1.3 g
KIDNEY_R [3]: 1.3 g
KIDNEY_TOTAL [3]: 2.5 g
KIDNEY_L [4]: 1.5 g
KIDNEY_R [4]: 1.5 g
KIDNEY_TOTAL [4]: 3.1 g
LIVER [2]: 13.3 g
LIVER [3]: 14 g
LIVER [4]: 15.1 g
ALP [2]: 917.6 IU/L
ALT [2]: 33.4 IU/L
AST [2]: 64 IU/L
BUN [2]: 20.2 mg/dL
CRE [2]: 0.5 mg/dL
Ca [2]: 11.4 mg/dL
DBIL [2]: 0.034 mg/dL
GLC [2]: 207.2 mg/dL
IP [2]: 7.6 mg/dL
K [2]: 4.3 meq/L
LDH [2]: 87 IU/L
Na [2]: 140.2 meq/L
PL [2]: 158.2 mg/dL
RALB [2]: 3.9 g/dL
TBIL [2]: 0.3 mg/dL
TC [2]: 74.4 mg/dL
TG [2]: 144.4 mg/dL
TP [2]: 6.1 g/dL
gamma-GTP [2]: 1.2 IU/L
ALP [3]: 645.2 IU/L
ALT [3]: 29.8 IU/L
AST [3]: 63 IU/L
BUN [3]: 20.2 mg/dL
CRE [3]: 0.6 mg/dL
DBIL [3]: 0.002 mg/dL
GLC [3]: 200 mg/dL
IP [3]: 7.5 mg/dL
K [3]: 4.5 meq/L
LDH [3]: 71.2 IU/L
Na [3]: 139.6 meq/L
PL [3]: 147.4 mg/dL
RALB [3]: 3.8 g/dL
TBIL [3]: 0.3 mg/dL
TC [3]: 65.8 mg/dL
TG [3]: 131.2 mg/dL
TP [3]: 6.2 g/dL
gamma-GTP [3]: 1.6 IU/L
ALP [4]: 574.8 IU/L
ALT [4]: 29.2 IU/L
AST [4]: 60.6 IU/L
BUN [4]: 22 mg/dL
CRE [4]: 0.6 mg/dL
DBIL [4]: 0.014 mg/dL
GLC [4]: 187.4 mg/dL
IP [4]: 6.3 mg/dL
K [4]: 4.6 meq/L
LDH [4]: 63.6 IU/L
Na [4]: 139.4 meq/L
PL [4]: 145.8 mg/dL
RALB [4]: 4 g/dL
TBIL [4]: 0.3 mg/dL
TC [4]: 66 mg/dL
TG [4]: 147 mg/dL
TP [4]: 6.3 g/dL
gamma-GTP [4]: 1.6 IU/L
TERMINAL_BW [5]: 225 g
APTT [5]: 15.8 s
Bas [5]: 0%
Eos [5]: 0.8%
Fbg [5]: 368.2 mg/dL
Hb [5]: 14 g/dL
Ht [5]: 41.8%
Lym [5]: 70.2%
MCH [5]: 21.7 pg
MCHC [5]: 33.4%
MCV [5]: 65.1 fL
Mono [5]: 13%
Neu [5]: 16%
PT [5]: 12.5 s
Plat [5]: 115.9 x10_4/uL
RBC [5]: 642.4 x10_4/ul
Ret [5]: 5.2%
WBC [5]: 122.6 x10_2/uL
KIDNEY_L [5]: 1.6 g
KIDNEY_R [5]: 1.7 g
KIDNEY_TOTAL [5]: 3.2 g
LIVER [5]: 9.7 g
ALP [5]: 838.2 IU/L
ALT [5]: 27.6 IU/L
AST [5]: 61.2 IU/L
BUN [5]: 35.2 mg/dL
CRE [5]: 0.8 mg/dL
Ca [5]: 11.5 mg/dL
DBIL [5]: 0 mg/dL
GLC [5]: 192 mg/dL
IP [5]: 8 mg/dL
K [5]: 4.8 meq/L
LDH [5]: 165.4 IU/L
Na [5]: 139 meq/L
PL [5]: 142 mg/dL
RALB [5]: 3.8 g/dL
TBIL [5]: 0.3 mg/dL
TC [5]: 87 mg/dL
TG [5]: 47.8 mg/dL
TP [5]: 6.3 g/dL
gamma-GTP [5]: 4.2 IU/L
TERMINAL_BW [6]: 245.1 g
TERMINAL_BW [7]: 248.1 g
TERMINAL_BW [8]: 319.9 g
APTT [6]: 16.2 s
Bas [6]: 0%
Eos [6]: 1%
Fbg [6]: 300.7 mg/dL
Hb [6]: 14.2 g/dL
Ht [6]: 42.6%
Lym [6]: 77.7%
MCH [6]: 21 pg
MCHC [6]: 33.2%
MCV [6]: 63.2 fL
Mono [6]: 6.7%
Neu [6]: 15.3%
PT [6]: 12.9 s
Plat [6]: 122.5 x10_4/uL
RBC [6]: 676.7 x10_4/ul
Ret [6]: 2.8%
WBC [6]: 161 x10_2/uL
APTT [7]: 16.1 s
Bas [7]: 0%
Eos [7]: 1%
Fbg [7]: 414 mg/dL
Hb [7]: 14.4 g/dL
Ht [7]: 42.8%
Lym [7]: 52%
MCH [7]: 19.8 pg
MCHC [7]: 33.5%
MCV [7]: 59 fL
Mono [7]: 7%
Neu [7]: 40.4%
PT [7]: 13.3 s
RBC [7]: 725 x10_4/ul
Ret [7]: 2.1%
WBC [7]: 209.4 x10_2/uL
APTT [8]: 15.3 s
Bas [8]: 0%
Eos [8]: 0.5%
Fbg [8]: 319.5 mg/dL
Hb [8]: 13.7 g/dL
Ht [8]: 40.8%
Lym [8]: 74.8%
MCH [8]: 19.2 pg
MCHC [8]: 33.6%
MCV [8]: 57.1 fL
Mono [8]: 3.2%
Neu [8]: 21%
PT [8]: 13 s
Plat [8]: 117.9 x10_4/uL
RBC [8]: 713.5 x10_4/ul
Ret [8]: 3.9%
WBC [8]: 344.2 x10_2/uL
KIDNEY_L [6]: 1.8 g
KIDNEY_R [6]: 1.9 g
KIDNEY_TOTAL [6]: 3.7 g
KIDNEY_L [7]: 2.8 g
KIDNEY_R [7]: 2.9 g
KIDNEY_TOTAL [7]: 5.7 g
KIDNEY_L [8]: 3 g
KIDNEY_R [8]: 2.7 g
KIDNEY_TOTAL [8]: 5.6 g
LIVER [8]: 12.1 g
ALP [6]: 697 IU/L
ALT [6]: 24.7 IU/L
AST [6]: 60.7 IU/L
BUN [6]: 38.7 mg/dL
CRE [6]: 0.8 mg/dL
Ca [6]: 11 mg/dL
DBIL [6]: 0.0367 mg/dL
GLC [6]: 190 mg/dL
IP [6]: 5.6 mg/dL
K [6]: 4.6 meq/L
LDH [6]: 96.3 IU/L
Na [6]: 141.3 meq/L
PL [6]: 139.7 mg/dL
RALB [6]: 3.8 g/dL
TBIL [6]: 0.2 mg/dL
TC [6]: 80.7 mg/dL
TG [6]: 64.3 mg/dL
TP [6]: 6.2 g/dL
gamma-GTP [6]: 3 IU/L
ALP [7]: 608.6 IU/L
ALT [7]: 23.4 IU/L
AST [7]: 62.8 IU/L
BUN [7]: 66.2 mg/dL
CRE [7]: 1 mg/dL
DBIL [7]: 0 mg/dL
GLC [7]: 177 mg/dL
IP [7]: 5.1 mg/dL
K [7]: 4.5 meq/L
LDH [7]: 150.8 IU/L
Na [7]: 140.2 meq/L
PL [7]: 154.8 mg/dL
RALB [7]: 3.3 g/dL
TBIL [7]: 0.3 mg/dL
TC [7]: 91.2 mg/dL
TP [7]: 6.1 g/dL
gamma-GTP [7]: 6 IU/L
ALP [8]: 482 IU/L
ALT [8]: 29.8 IU/L
AST [8]: 68.8 IU/L
BUN [8]: 61.2 mg/dL
CRE [8]: 1.1 mg/dL
Ca [8]: 11.3 mg/dL
DBIL [8]: 0.015 mg/dL
GLC [8]: 163.5 mg/dL
IP [8]: 5.2 mg/dL
K [8]: 4.8 meq/L
LDH [8]: 150.8 IU/L
Na [8]: 141.5 meq/L
PL [8]: 162.5 mg/dL
RALB [8]: 3.7 g/dL
TBIL [8]: 0.2 mg/dL
TC [8]: 98.2 mg/dL
TG [8]: 79 mg/dL
TP [8]: 6.3 g/dL
gamma-GTP [8]: 3.8 IU/L
